Measured values: PubChem BioAssay AID977622 (Broad Institute, 2014)
Inconclusive results are not listed. Active and inactive are the calls of the source.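 The calls were made as follows: active = Green signal of the normal strain falls at least twice as much as red signal of the resistant mutant, with overall culture growth loss under a set limit; inconclusive = no clear call, values can overlap the other calls; inactive = the rest.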

Legend:
[1] = test system: E. coli WT ribosome GFP fluorescence, mixed culture, 24 h; assay: growth inhibition of wild-type GFP E. coli, dose response, h38 mutant RFP, cherry-pick (AID 977622)
[2] = test system: E. coli h38 humanized mutant ribosome RFP fluorescence, mixed culture, 24 h; assay: as above; conditions: measured here: h38 humanized mutant RFP strain
[3] = E. coli mixed culture, 24 h, measured here: total growth OD600

SMILES | AC50 [1] | AC50 [2] [µM] | AC50 [1, 3] [µM]
Cc1nc([N+](=O)[O-])c(Br)n1CC(=O)c1ccc(F)cc1 | > 100 µM (inactive) | 4.58 | –
COc1ccccc1NC(=O)COC(=O)Cc1c[nH]c2ccccc12 | – | > 100 | > 100
O=C(c1cccc2ccccc12)C1CCCN(C(=O)CCc2cnccn2)C1 (configuration not stated) | – | > 100 | > 100
COc1ccc(OC)c(S(=O)(=O)Nc2cccc3ccc(O)cc23)c1 | > 100 µM (inactive) | > 100 | > 100
Cc1ccccc1S(=O)(=O)N1C[C@H]2CON(C)[C@H]2C[C@H]1c1cccc(-c2ccc(C#N)cc2)c1 | – | > 100 | –
NC(=O)c1cccnc1Oc1ccc(Cl)cc1Cl | > 100 µM (inactive) | > 100 | –
CCc1cc2c(nc1CC)CCCN2Cc1ccc(Br)cc1 | > 100 µM (inactive) | > 100 | –
Cc1cc(SCC(=O)c2cccs2)n2nc(C)c(-c3ccc(Cl)cc3)c2n1 | – | > 100 | –
COc1ccc(NC(=O)CCS(=O)(=O)c2ccccc2Cl)cc1S(=O)(=O)Nc1ccc(Cl)cc1 | > 100 µM (inactive) | > 100 | > 100
CC(=O)Nc1cccc(OCc2ccc([N+](=O)[O-])cc2)c1 | – | > 100 | –
O=C(NCc1ccccc1)C1C(=O)Nc2ccccc2C(=O)N1c1ccc2c(c1)OCCO2 (configuration not stated) | > 100 µM (inactive) | > 100 | –
COc1ccc2oc(C)c(C(=O)c3ccccc3)c2c1 | > 100 µM (inactive) | > 100 | 48.5
CC(C)n1nnnc1C1c2ccccc2C(=O)N1CCOc1ccccc1 (configuration not stated) | – | 3.86 | > 100
N#Cc1cccc(-c2ccc3c(c2)[C@@H]2[C@@H](CCN2S(=O)(=O)c2cccc(F)c2)[C@H](CO)N3)c1 | > 100 µM (inactive) | > 100 | –
CN(C)S(=O)(=O)N1CCN(c2ccccc2Cl)CC1 | – | > 100 | > 100
C=C1c2cc3c(cc2NC(=S)N1Cc1ccccc1)OCO3 | – | > 100 | > 100
O=C(Nc1cccc(Cl)c1)c1ccc(S(=O)(=O)NCC2CCCO2)cc1 (configuration not stated) | > 100 µM (inactive) | 43.4 | 52.5
COc1ccc(OC)c(C(=O)COC(=O)c2ccc([N+](=O)[O-])o2)c1 | > 100 µM (inactive) | > 100 | > 100
CCC1(CC)NC(=O)N(CC(=O)N2N=C(c3ccc(Cl)cc3)CC2c2ccco2)C1=O (configuration not stated) | – | > 100 | > 100
O=C(O)CSc1nnc(-c2ccc(Cl)cc2Cl)n1-c1ccc(Br)cc1 | > 100 µM (inactive) | > 100 | > 100
C=CCn1c(C)cc(C(=O)CSc2nnc(C3CC3)n2C2CC2)c1C | – | > 100 | > 100
Cc1ccccc1-c1cc(C(=O)NCc2cccs2)n(CC2CC(c3cccnc3)=NO2)n1 (configuration not stated) | > 100 µM (inactive) | > 100 | –
NS(=O)(=O)c1cccc(NC(=O)CSc2nc3ccccc3n2-c2ccccc2)c1 | > 100 µM (inactive) | > 100 | 36
COc1ccc(NC(=O)Nc2cccc3c2O[C@@H](CN(C)S(=O)(=O)c2ccc(Cl)cc2)[C@H](C)CN([C@H](C)CO)C3=O)cc1 | > 100 µM (inactive) | > 100 | –
CCc1cc2cc(OC)ccc2nc1SCC(=O)Nc1cc(OC)c(OC)cc1C(=O)O | > 100 µM (inactive) | > 100 | 36.3
Nc1c(Cl)cc(C2=NCCn3nc4ccccc4c32)cc1Cl | > 100 µM (inactive) | 50.5 | 41.6
CCOc1ccc(C(C)=O)cc1CN1C(=O)NC2(CCCCCCC2)C1=O | – | > 100 | –

SMILES | AC50 [1] | AC50 [2] [µM] | AC50 [1, 3] [µM]
O=C(c1cccs1)c1c[nH]cc1-c1ccccc1 | – | > 100 | > 100
CC(C)=C(c1ccc(Cl)cc1)c1c(N)ncnc1N | – | > 100 | –
Cc1ccc(C(=O)Nc2cccc3[nH]c(C(F)(F)F)nc23)cc1 | – | > 100 | > 100
O=C1OC[C@@H]2CCCN2C(=O)[C@@H](CC(=O)N(CCO)Cc2ccccc2)C/C=C\C[C@H]1Cc1ccc(F)cc1 | – | > 100 | > 100
O=C(Nc1ccc(C(=O)c2ccccc2)cc1)c1ccccc1 | – | > 100 | –
CCCc1c(C(=O)Nc2ccc(OC)cc2)cnn1-c1ccccc1 | > 100 µM (inactive) | 9.68 | –
CN(C)CCCN(C(=O)CCOc1ccccc1)c1nc2c(F)cccc2s1 | – | > 100 | –
O=C(Nc1ccncc1)c1ccc(S(=O)(=O)Nc2ccccc2)cc1 | > 100 µM (inactive) | > 100 | –
O=S(=O)(NOCc1ccc(Cl)cc1)c1ccc(Cl)cc1 | – | 52 | –
COC(=O)c1c(-c2ccc(OC)cc2)sc2cc(OC)c(OC)cc12 | > 100 µM (inactive) | > 100 | 45.8
COc1ccc(CN2C(=O)NC(C)(c3ccc(C)cc3)C2=O)cc1F (configuration not stated) | > 100 µM (inactive) | > 100 | –
COc1cccc(-c2ccc(NC(=O)C3CCCN(Cc4cnn(C(C)C)c4)C3)cc2)c1 (configuration not stated) | – | > 100 | –
C[C@H]1CN([C@@H](C)CO)C(=O)c2c(c3ccccc3n2C)-c2ccccc2CO[C@@H]1CN(C)Cc1ccncc1 | – | > 100 | –
Cc1ccccc1CSCC(=O)Nc1ccccc1F | – | > 100 | –
CN(C)c1ccc(-c2nnn(Cc3ccccc3Br)n2)cc1 | > 100 µM (inactive) | > 100 | –
CCc1cccc(NC(=O)CN(C)S(=O)(=O)c2cccc3cccnc23)c1 | > 100 µM (inactive) | > 100 | –
Cc1cccc(Nc2nc(-c3ccc(F)cc3)cs2)n1 | > 100 µM (inactive) | > 100 | > 100
COc1cccc(NC(=O)C2CCC(CNS(=O)(=O)c3cccs3)CC2)c1 (configuration not stated) | > 100 µM (inactive) | > 100 | –
O=S1(=O)N[C@H](Cc2ccccc2)COc2cccc(N3CCC[C@H]3CO)c21 | > 100 µM (inactive) | > 100 | –
O=S(=O)(Nc1ccc(-c2cnco2)cc1)c1ccccc1 | > 100 µM (inactive) | > 100 | –
Cc1onc(-c2ccccc2Cl)c1C(=O)N1CCN(Cc2ccc3c(c2)OCO3)CC1 | – | > 100 | > 100
CC(C)(C)S(=O)(=O)Cc1nc(-c2ccc(Cl)c(Cl)c2)cs1 | > 100 µM (inactive) | > 100 | > 100
CN1C(=O)c2cc(NC(=O)c3cccc(F)c3)ccc2OC[C@H]2O[C@@H](CC(=O)NCC3CCCCC3)CC[C@@H]21 | – | > 100 | –
CS(=O)(=O)c1ccc(Cl)c(NC(=O)CSc2nncn2-c2ccccc2)c1 | > 100 µM (inactive) | > 100 | –
CCn1cc(Br)c(C(=O)Nc2ccc(C(=O)OC(C)C)cc2)n1 | > 100 µM (inactive) | > 100 | –
C[C@@H]1CCCCO[C@H](CN(C)CC2CC2)[C@H](C)CN([C@@H](C)CO)C(=O)c2cc(NC(=O)Nc3cccc4ccccc34)ccc2O1 | > 52 µM (inactive) | 43.2 | 32.4
